In patent US5194645A, “Trans-Pt (IV) compounds” (Johnson Matthey Public Limited Company, priority 1991, dated 1993):

Columns and labels:
41M ® = assay: In vitro cytotoxicity (SRB), 41M ®; format: cell-based, human; conditions: 41M ® (cisplatin resistant), ovarian cancer, 48 to 96 hours
Protocol: (§1) Additional in vitro biological testing was conducted using cell lines derived from human carcinomas and maintained at the Institute of Cancer Research, Sutton, England (see C A Hills & colleagues, Br J Cancer 59, 527-34 (1989)). Monolayer cells were trypsinized and seeded in 96-well microtiter plates at a density of 1×10^4 cells/well in 200 μl of growth medium. Cells were incubated overnight and test compounds were added to triplicate wells at various concentrations for a total of 48 to 96 hours. For toxicity analysis after drug exposure, the cells were fixed with trichloroacetic acid and stained for cellular protein content by incubation for 30 minutes with 0.4% (wt/vol) sulforodamine B (SRB) dissolved in 1% acetic acid. The unbound dye was removed by 1% acetic acid washes, and the bound dye was extracted with 10 mM Tris buffer. The amount of dye in solution was quantified by absorbance at 564 nm.
(§2) In the Tables A and B below, all the cells are ovarian cancer cells with the exception of GCT27^R /GCT27 which are testicular. Table A gives IC50 values in μM; Table B gives Resistance Factors as a ratio of IC50 for a cell line bred to be resistant to cisplatin against IC50 for the nonresistant cell line.

A2780 ® = assay: In vitro cytotoxicity (SRB), A2780 ®; format: cell-based, human; conditions: A2780 ® (cisplatin resistant), ovarian cancer, 48 to 96 hours
Protocol: as §1, §2

CHI ® = assay: In vitro cytotoxicity (SRB), CHI ®; format: cell-based, human; conditions: CHI ® (cisplatin resistant), ovarian cancer, 48 to 96 hours
Protocol: as §1, §2

41M ®/41M = assay: Resistance factor 41M ®/41M; format: cell-based, human; conditions: ratio of IC50 resistant to nonresistant line, ovarian
Protocol: as §1, §2

41M = assay: In vitro cytotoxicity (SRB), 41M; format: cell-based, human; conditions: ovarian cancer, 48 to 96 hours
Protocol: as §1, §2

CHI ®/CHI = assay: Resistance factor CHI ®/CHI; format: cell-based, human; conditions: ratio of IC50 resistant to nonresistant line, ovarian
Protocol: as §1, §2

A2780 = assay: In vitro cytotoxicity (SRB), A2780; format: cell-based, human; conditions: A2780, ovarian cancer, 48 to 96 hours
Protocol: as §1, §2

SKOV-3 = assay: In vitro cytotoxicity (SRB), SKOV-3; format: cell-based, human; conditions: SKOV-3, ovarian cancer, 48 to 96 hours
Protocol: as §1, §2

HX62 = assay: In vitro cytotoxicity (SRB), HX62; format: cell-based, human; conditions: HX62, ovarian cancer, 48 to 96 hours
Protocol: as §1, §2

CHI = assay: In vitro cytotoxicity (SRB), CHI; format: cell-based, human; conditions: ovarian cancer, 48 to 96 hours
Protocol: as §1, §2

A2780 ®/A2780 = assay: Resistance factor A2780 ®/A2780; format: cell-based, human; conditions: ratio of IC50 resistant to nonresistant line, ovarian
Protocol: as §1, §2

GCT27 ®/GCT27 = assay: Resistance factor GCT27 ®/GCT27; format: cell-based, human; conditions: ratio of IC50 resistant to nonresistant line, testicular
Protocol: as §1, §2

PXN/94 = assay: In vitro cytotoxicity (SRB), PXN/94; format: cell-based, human; conditions: PXN/94, ovarian cancer, 48 to 96 hours
Protocol: as §1, §2

Adj/PC6 = assay: In vivo Adj/PC6 tumour test in mice (LD50, ED90, therapeutic index)
Protocol: The Adj/PC6 testing was carried out as described by P M Goddard et al presented in Sixth NCI-EORTC Symposium on New Drugs in Cancer Therapy 1989, which is a development of the basic method described by T A Connors et al, Chem Biol Interact 5, 415(1972). The in vivo L1210 tests were conducted according to the NCI protocol, Cancer Chemotherapy Reports, Part 3, vol 2, (Sept 1972) except that the animals used were DBA/2 mice and that dosing was carried out on days 1, 5 and 9. The animals were sacrificed when moribund. The compounds were administered parenterally (ip).
In the Adj/PC6 testing, LD50 and ED90 values in mg/kg body weight were determined in the conventional manner. The therapeutic index (TI) was calculated as the ratio of LD50 to ED90, and the results are shown below.
Additional tests were carried out in vivo using the compound of Example 2, against sensitive Adj/PC6 tumour cell lines, and against tumour cell lines resistant to various platinum anti-tumour agents, and a TI (Therapeutic Index) calculated, as described above.

Adj/PC6/cisplatin res = assay: In vivo Adj/PC6 cisplatin-resistant tumour test in mice; parameters: key to ED90: --: indicates 90% inhibition not achieved for doses up to LD50
Protocol: (§3) The animals were sacrificed when moribund. The compounds were administered parenterally (ip).

Adj/PC6/iproplatin res = assay: In vivo Adj/PC6 iproplatin-resistant tumour test in mice; parameters: key to ED90: --: indicates 90% inhibition not achieved for doses up to LD50
Protocol: as §3

OVCAR-3 [1] = assay: In vivo OVCAR-3 ovarian carcinoma xenograft; parameters: species or system mice; conditions: tumour volume vs control
OVCAR-3 [2] = assay: In vivo OVCAR-3 ovarian carcinoma xenograft; parameters: species or system mice; conditions: delay in doubling of tumour volume vs control
Protocol: The "growth delay" was also measured which represents the delay in achieving a doubling of the tumour volume for the treated group compared to the control group.

Adj/PC6/tetraplatin res = assay: In vivo Adj/PC6 tetraplatin-resistant tumour test in mice
Protocol: as §3

[3] = Adj/PC6, comparison with cis-isomer

| Compound | IC50 (41M ®) [µM] | IC50 (A2780 ®) [µM] | IC50 (CHI ®) [µM] | Resistance Factor 41M ®/41M (41M ®/41M) | IC50 (41M) [µM] | Resistance Factor CHI ®/CHI (CHI ®/CHI) | IC50 (A2780) [µM] | IC50 (SKOV-3) [µM] | IC50 (HX62) [µM] | IC50 (CHI) [µM] | Resistance Factor A2780 ®/A2780 (A2780 ®/A2780) | IC50 (PXN/94) [µM] | ED90 (Adj/PC6; Adj/PC6 testing, mice, ip) [mg/kg body weight] | LD50 (Adj/PC6; Adj/PC6 testing, mice, ip) [mg/kg body weight] | TI (therapeutic index, ratio of LD50 to ED90) (Adj/PC6; Adj/PC6 testing, mice, ip) | further results |
| --- | --- | --- | --- | --- | --- | --- | --- | --- | --- | --- | --- | --- | --- | --- | --- | --- |
| [NH2][Pt]([OH])([OH])([Cl])([Cl])[NH]Cc1ccccc1 [B, t[PtCl2 (OH2)NH3 (PhCH2 NH2)]] | 1.35 | 4.2 | 1.95 | 1.0 | 1.3 | 1.7 | 1.06 | 8.2 | 10.2 | 1.12 | 4.0 |  |  |  |  |  |
| N.N.[Cl][Pt][Cl] [Cisplatin, cis-[PtCl2 (NH3)2], reference compound] |  |  |  | 4.7 |  | 6.4 |  |  |  |  | 15.7 |  |  |  |  | Resistance Factor GCT27 ®/GCT27 (GCT27 ®/GCT27): 6.2 |
| [NH2][Pt]([OH])([OH])([Cl])([Cl])[NH]C1CCCC1 [EX 1, trans-[PtCl2 (OH)2 (NH3)(c-C5 H9 NH2)]] | 1.3 | 5.2 | 1.9 | 1.2 | 1.1 | 1.7 | 0.95 | 7 | 10.2 | 1.15 | 5.5 |  |  |  |  |  |
| CC(C)[NH][Pt]([NH2])([OH])([OH])([Cl])[Cl] [EX 3, trans-[PtCl2 (OH)2 (NH3)((CH3)2 CHNH2)]] | 4.6 |  | 5.5 | 1.4 | 3.2 | 2.3 |  | 9.2 | 14 | 2.4 |  | 8.3 | 10.5 | 18 | 1.7 |  |
| CC(C)(C)[NH][Pt]([NH2])([OH])([OH])([Cl])[Cl] [EX 4, trans-[PtCl2 (OH)2 NH3 (t-C4 H9 NH2)]] | 0.9 |  | 1.6 | 0.8 | 1.1 | 2.2 |  | 4.7 | 1.8 | 0.74 |  | 3 | 4.7 | 35 | 7.4 |  |
| C[NH][Pt]([NH2])([OH])([OH])([Cl])[Cl] [EX 6, trans-[PtCl2 (OH)2 NH3 (MeNH2)]] | 33 | 64 | 30.5 | 6.1 | 5.4 | 2.4 | 6.2 | 72 | 110 | 12.5 | 10.3 |  |  |  |  |  |
| [NH2][Pt]([OH])([OH])([Cl])([Cl])[N]1CCOCC1 [EX 7, trans-[PtCl2 (OH)2 NH3 (morpholine)]] | 54 | 47 | 28.3 | 2.1 | 26 | 1.6 | 10.9 | 47 | 100 | 17.3 |  | 50 | 94 | 82 | < 1 |  |
| CC[N](CC)[Pt]([NH2])([OH])([OH])([Cl])[Cl] [EX 10, t-[PtCl2 (OH)2 NH3 (Et2 NH)]] | 0.8 | 11.6 | 4.6 |  | 1.8 |  | 1.9 | 12.1 | 3.2 | 3.3 |  |  |  |  |  |  |
| C1CN2CCC1CC2.[NH2][Pt]([OH])([OH])([Cl])[Cl] [EX 11, t-[PtCl2 (OH)2 NH3 (quinuclidine)]] | 9.5 | 16 | 14.3 |  | 14.4 |  | 3.2 | 27 | 40 | 10.2 |  |  |  |  |  |  |
| ctc[PtCl2 (OH) NH3(c-C6 H11 NH2)] [Cis-isomer, reference compound] |  |  |  |  |  |  |  |  |  |  |  |  |  |  |  | ED90 (Adj/PC6/cisplatin res): --; LD50 (Adj/PC6/cisplatin res): 8.8 mg/kg; ED90 (Adj/PC6/iproplatin res): --; LD50 (Adj/PC6/iproplatin res): 8.8 mg/kg; T/C (day 28) (OVCAR-3 [1]; 2 mg/kg): 0.636; T/C (day 28) (OVCAR-3 [1]; 4 mg/kg): 0.427; T/C (day 28) (OVCAR-3 [1]; 8 mg/kg): 0.599; Growth Delay (OVCAR-3 [2]; 2 mg/kg): 4.3 days; Growth Delay (OVCAR-3 [2]; 4 mg/kg): 15.2 days; Growth Delay (OVCAR-3 [2]; 8 mg/kg): 5.5 days; ED90 (Adj/PC6; [3]): 1.4 mg/kg; LD50 (Adj/PC6; [3]): 17.5 mg/kg; TI (Therapeutic Index) (Adj/PC6; [3]): 13; ED90 (Adj/PC6/tetraplatin res): 12 mg/kg; LD50 (Adj/PC6/tetraplatin res): > 12.5 mg/kg; TI (Therapeutic Index) (Adj/PC6/tetraplatin res): > 1 |
| t-[PtCl2 (OH)2 NH3 (exo-2-aminonorbornane)] | 1.47 |  | 1.7 | 1.0 | 1.4 | 1.2 |  | 4.4 | 5.6 | 1.4 |  | 3.2 | < 6.25 | 15.5 | > 2.5 |  |
| trans-[PtCl2 (OH)2 NH3 (C10 H21 NH2)] [EX 8] | 5.3 | 14.1 | 14.6 |  | 12 |  | 2.9 | 25 | 23 | 14 |  |  |  |  |  |  |
